Test results as given in patent EP0573682A1, “Tea polyphenols as anti-hyperglycemic agents” (MITSUI NORIN CO., LTD., priority 1992, dated 1993).

Tests used:
ICR mice = test: Acute toxicity; type: in vivo; conditions: perorally administered; 6 week ICR male mice; 10080 min
Description: (§1) (-)Epigallocatechin gallate was tested with respect to its acute toxicity. Where (-)epigallocatechin gallate was perorally administered to 6 week ICR male mice, LD₅₀ after one week was 2314mg/kg. Where (-)epigallocatechin was administered intraperitonealy to 5 week old female ICR mice, LD₅₀ after one week was 150mg/kg.

Acute toxicity = type: in vivo, mice; conditions: mouse, in vivo, ip; administered intraperitonealy; 5 week old female ICR mice; read-out: LD₅₀ after one week
Description: as §1

Row | SMILES | LD₅₀ after one week (ICR mice) | LD50 at 168 h (Acute toxicity)
1 | O=C(O[C@@H]1Cc2c(O)cc(O)cc2O[C@@H]1c1cc(O)c(O)c(O)c1)c1cc(O)c(O)c(O)c1 [(-)epigallocatechin gallate, (-) Epigallocatechin gallate] | 2314 mg/kg | 
2 | Oc1cc(O)c2c(c1)O[C@H](c1cc(O)c(O)c(O)c1)[C@H](O)C2 [(-)epigallocatechin, (-) Epigallocatechin] |  | 150 mg/kg
